Consider four compounds from PMC7407822, “Aldose Reductase Differential Inhibitors in Green Tea” (Biomolecules, 2020).

Each structure is given as a SMILES string. Like-named read-outs stand apart in the source and are kept apart here.

Assay [1] deals with T1, human recombinant AKR1B1 (Homo sapiens, UniProt P15121).
T1 construct: made in house
Kind of assay: AKR1B1 activity assay (NADPH oxidation at 340 nm), dose-dependent inhibition, IC50. The class given is biochemical. How it is done:
One unit of enzyme activity is the amount of enzyme that catalyzes the conversion of 1 µmol of substrate/min in the above assay conditions.
The human recombinant AKR1B1 was expressed and purified to electrophoretic homogeneity, as previously described. […] The purified enzyme was stored at −80 °C in a 10 mM sodium phosphate buffer pH 7.0 containing 2 mM DTT and 30% (w/v) glycerol. Before use, AKR1B1 was extensively dialyzed against 10 mM of a sodium phosphate buffer pH 7.0.

The target of assay [2] is T1, human recombinant AKR1B1. Kind of assay: Steady state inhibition kinetic analysis (Hanes-Woolf and secondary plots). Format: biochemical. The note with it: for Ki / Ki’ (appK’i, ESI complex dissociation constant): mean ± SD; for Ki: read-out: Ki (appKi, EI complex dissociation constant). How it is done:
The AKR1B1 activity was determined at 37 °C, as previously described, monitoring the decrease in absorbance at 340 nm linked to NADPH oxidation (ε340 = 6.22 mM^−1.cm^−1) using a Biochrom Libra S60 spectrophotometer. The standard assay mixture (0.7 mL) contained in a 0.25 M sodium phosphate buffer pH 6.8, 0.18 mM NADPH, 0.4 M ammonium sulfate, 0.5 mM EDTA, and 4.7 mM GAL. One unit of enzyme activity is the amount of enzyme that catalyzes the conversion of 1 µmol of substrate/min in the above assay conditions.
The kinetic analysis of the experimental rate measurements with different substrates (S) in the presence of inhibitors (I) was performed on the classical inhibition model of action. Here, (I) is considered to intervene into a steady state condition of the reaction, being free to interact with the free enzyme (E), the ES complex or with both, through a rapid equilibrium. Data were analyzed by Hanes-Woolf plots. The apparent dissociation constants ^appKi’ (for the ESI complex) and ^appKi (for the EI complex) were determined from secondary plots of 1/^appVmax and ^appKM/^appVmax as a function of the inhibitor concentration, respectively.

Assay [3] concerns AKR1B1. To be noted: known inhibitor co-crystallized with AKR1B1, PDB code 4IGS; cited from earlier work.
The mark [4] stands for this setting: 8 mM L-idose, 0.03 mM HNE, 0.07 mM GSHNE.

The term IC50 denotes the concentration that gives 50% inhibition. As usually defined, the Ki is the equilibrium dissociation constant of an inhibitor or competing ligand from its target. Regarding `Oc1cc(O)c2c(c1)O[C@H](c1cc(O)c(O)c(O)c1)[C@H](O)C2` [EGC, epigallocatechin], the “ARDI action (differential inhibition of L-idose and GSHNE reduction with respect to HNE)” value in assay [1] (setting [4]) was “completely ineffective as ARDI”. For the same compound, the 50% inhibitory concentration (IC50) in assay [1] (read-out: IC50 values, unaffected by the nature of the substrate) fell in the range of 500 to 700 µM. Besides, in assay [2] (substrate GSHNE), the “type (model) of inhibition” value is given as “competitive inhibitor” and the Ki is 553 ± 87 µM. In assay [2] (substrate HNE), the “Ki/Ki’” value is recorded as 2.5; the “Ki’ (appK’i, ESI complex dissociation constant)” value was 686 ± 63 µM; the Ki is 1680 ± 289 µM. Besides, in assay [2] (substrate L-idose), the “Ki/Ki’” value was determined as 2.5 and the “Ki’ (appK’i, ESI complex dissociation constant)” value worked out at 496 ± 35 µM.

In the case of `O=C(O[C@@H]1Cc2c(O)cc(O)cc2O[C@@H]1c1cc(O)c(O)c(O)c1)c1cc(O)c(O)c(O)c1` [EGCG, epigallocatechin gallate], in assay [1] (0.03 mM HNE, at EGCG concentrations equal to its IC50 for L-idose and GSHNE ([…] and […])), the “residual activity for HNE reduction, of activity in the absence of inhibitor” value is listed as 80–90%. Moreover, the “ARDI action (differential inhibition of L-idose and GSHNE reduction with respect to HNE)” value in assay [1] (setting [4]) is “comparable significant (p < 0.0001) ARDI action”. Besides, the figures for the “type (model) of inhibition” value in assay [2] (substrate GSHNE), in assay [2] (substrate HNE) and in assay [2] (substrate L-idose) were “apparently purely non-competitive type of inhibition”, “typical uncompetitive model of action” and “mixed type of inhibition”, respectively. Moreover, the “Ki’ (appK’i, ESI complex dissociation constant)” value worked out at 144 ± 22 µM in assay [2] (substrate GSHNE), 116 ± 11 µM in assay [2] (substrate HNE) and 61 ± 9 µM in assay [2] (substrate L-idose).

Turning to `O=C(O)c1cc(O)c(O)c(O)c1` [GA, gallic acid], the “ARDI action (differential inhibition of L-idose and GSHNE reduction with respect to HNE)” value in assay [1] (setting [4]) is “still able to act as an ARDI”. In addition, the half-inhibitory concentration (IC50) in assay [1] (IC50, GSHNE reduction, 0.07 mM GSHNE, 8 mU AKR1B1, 37 °C, pH 6.8) is 2500 µM; in assay [1] (IC50, HNE reduction, 0.03 mM HNE, 8 mU AKR1B1, 37 °C, pH 6.8), 586 µM; in assay [1] (IC50, L-idose reduction, 8 mM L-idose, 8 mU AKR1B1, 37 °C, pH 6.8), 196 µM. Further, the “type (model) of inhibition” value in assay [2] (substrate GSHNE), in assay [2] (substrate HNE) and in assay [2] (substrate L-idose) was “apparent uncompetitive model of action” throughout. Moreover, the “Ki’ (appK’i, ESI complex dissociation constant)” value turned out to be 793 ± 102 µM in assay [2] (substrate GSHNE), 253 ± 23 µM in assay [2] (substrate HNE) and 103 ± 7 µM in assay [2] (substrate L-idose).

Turning to `Oc1c(F)c(F)c(-c2c(F)c(F)c(O)c(F)c2F)c(F)c1F` [JF0064], in assay [3], the “activity as AKR1B1 inhibitor” value was “very active at sub micromolar levels”.
